Experimental data from the supplement of paper PMC10307832.

Assays:
Assay in all cases: relative viability (nuclei count vs DMSO), 5 days (fraction); higher = more cells survive
SW 900 = tested on: SW 900
Method in brief: (§1)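 Cells from lung cancer lines were seeded into 1536-well plates and, one day later, dosed by pin tool. Treatments were either a single drug or a fixed dose of an anchor drug with five library-drug doses (not always all listed) in √10 steps. After 5 days, nuclei were stained in a one-step fixation (final 0.05% Triton X-100, 1% formaldehyde, 1 ug/ml Hoechst) and counted on 4× images, and relative viability is the treated-to-vehicle nuclei ratio, as the median of duplicate plates.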

NCI-H2023 = tested on: NCI-H2023
Method in brief: as §1

NCI-H647 = tested on: NCI-H647
Method in brief: as §1

NCI-H2405 = tested on: NCI-H2405
Method in brief: as §1

PC-14 = tested on: PC-14
Method in brief: as §1

NCI-H1734 = tested on: NCI-H1734
Method in brief: as §1

NCI-H2347 = tested on: NCI-H2347
Method in brief: as §1

EPLC-272H = tested on: EPLC-272H
Method in brief: as §1

201T = tested on: 201T
Method in brief: as §1

COR-L23 = tested on: COR-L23
Method in brief: as §1

NCI-H2170 = tested on: NCI-H2170
Method in brief: as §1

UMC-11 = tested on: UMC-11
Method in brief: as §1

NCI-H1793 = tested on: NCI-H1793
Method in brief: as §1

NCI-H3122 = tested on: NCI-H3122
Method in brief: as §1

HCC-15 = tested on: HCC-15
Method in brief: as §1

NCI-H520 = tested on: NCI-H520
Method in brief: as §1

NCI-H322M = tested on: NCI-H322M
Method in brief: as §1

LOU-NH91 = tested on: LOU-NH91
Method in brief: as §1

NCI-H1650 = tested on: NCI-H1650
Method in brief: as §1

H3255 = tested on: H3255
Method in brief: as §1

NCI-H441 = tested on: NCI-H441
Method in brief: as §1

## Cc1sc2c(c1C)C(c1ccc(Cl)cc1)=N[C@@H](CC(=O)OC(C)(C)C)c1nnc(C)n1-2 [JQ1] + O=C(CCCCCCC(=O)Nc1ccccc1)NO [Vorinostat] (partner 1 µM)
SW 900; first compound 0.04 µM
  relative viability: 0.448
SW 900; first compound 0.1265 µM
  relative viability: 0.611
SW 900; first compound 0.4 µM
  relative viability: 0.332
SW 900; first compound 1.265 µM
  relative viability: 0.174
SW 900; first compound 4 µM
  relative viability: 0.157
NCI-H2023; first compound 0.04 µM
  relative viability: 0.6
NCI-H2023; first compound 0.1265 µM
  relative viability: 0.372
NCI-H2023; first compound 0.4 µM
  relative viability: 0.44
NCI-H2023; first compound 1.265 µM
  relative viability: 0.156
NCI-H2023; first compound 4 µM
  relative viability: 0.106
NCI-H647; first compound 0.04 µM
  relative viability: 0.615
NCI-H647; first compound 0.1265 µM
  relative viability: 0.373
NCI-H647; first compound 0.4 µM
  relative viability: 0.406
NCI-H647; first compound 1.265 µM
  relative viability: 0.0648
NCI-H647; first compound 4 µM
  relative viability: 0.062
NCI-H2405; first compound 0.04 µM
  relative viability: 1.03
NCI-H2405; first compound 0.4 µM
  relative viability: 0.79
NCI-H2405; first compound 1.265 µM
  relative viability: 0.413
NCI-H2405; first compound 4 µM
  relative viability: 0.276
PC-14; first compound 0.04 µM
  relative viability: 0.787
PC-14; first compound 0.1265 µM
  relative viability: 0.564
PC-14; first compound 0.4 µM
  relative viability: 0.44
PC-14; first compound 1.265 µM
  relative viability: 0.203
PC-14; first compound 4 µM
  relative viability: 0.16
NCI-H1734; first compound 0.04 µM
  relative viability: 0.802
NCI-H1734; first compound 0.1265 µM
  relative viability: 0.665
NCI-H1734; first compound 0.4 µM
  relative viability: 0.712
NCI-H1734; first compound 1.265 µM
  relative viability: 0.334
NCI-H1734; first compound 4 µM
  relative viability: 0.358
NCI-H2347; first compound 0.04 µM
  relative viability: 0.615
NCI-H2347; first compound 0.1265 µM
  relative viability: 0.521
NCI-H2347; first compound 0.4 µM
  relative viability: 0.463
NCI-H2347; first compound 1.265 µM
  relative viability: 0.282
NCI-H2347; first compound 4 µM
  relative viability: 0.259
EPLC-272H; first compound 0.04 µM
  relative viability: 0.473
EPLC-272H; first compound 0.1265 µM
  relative viability: 0.391
EPLC-272H; first compound 0.4 µM
  relative viability: 0.274
EPLC-272H; first compound 1.265 µM
  relative viability: 0.175
EPLC-272H; first compound 4 µM
  relative viability: 0.206
201T; first compound 0.04 µM
  relative viability: 0.952
201T; first compound 0.4 µM
  relative viability: 0.73
201T; first compound 1.265 µM
  relative viability: 0.46
201T; first compound 4 µM
  relative viability: 0.367
COR-L23; first compound 0.04 µM
  relative viability: 0.516
COR-L23; first compound 0.1265 µM
  relative viability: 0.327
COR-L23; first compound 0.4 µM
  relative viability: 0.401
COR-L23; first compound 1.265 µM
  relative viability: 0.269
COR-L23; first compound 4 µM
  relative viability: 0.207
NCI-H2170; first compound 0.04 µM
  relative viability: 0.866
NCI-H2170; first compound 0.1265 µM
  relative viability: 0.609
NCI-H2170; first compound 0.4 µM
  relative viability: 0.513
NCI-H2170; first compound 1.265 µM
  relative viability: 0.472
NCI-H2170; first compound 4 µM
  relative viability: 0.243
UMC-11; first compound 0.04 µM
  relative viability: 0.326
UMC-11; first compound 0.1265 µM
  relative viability: 0.317
UMC-11; first compound 0.4 µM
  relative viability: 0.223
UMC-11; first compound 1.265 µM
  relative viability: 0.141
UMC-11; first compound 4 µM
  relative viability: 0.165
NCI-H1793; first compound 0.04 µM
  relative viability: 0.722
NCI-H1793; first compound 0.1265 µM
  relative viability: 0.853
NCI-H1793; first compound 0.4 µM
  relative viability: 0.664
NCI-H1793; first compound 1.265 µM
  relative viability: 0.548
NCI-H1793; first compound 4 µM
  relative viability: 0.508
NCI-H3122; first compound 0.04 µM
  relative viability: 1.01
NCI-H3122; first compound 0.1265 µM
  relative viability: 0.506
NCI-H3122; first compound 0.4 µM
  relative viability: 1.02
NCI-H3122; first compound 1.265 µM
  relative viability: 1.04
NCI-H3122; first compound 4 µM
  relative viability: 0.664
HCC-15; first compound 0.04 µM
  relative viability: 0.804
HCC-15; first compound 0.1265 µM
  relative viability: 0.705
HCC-15; first compound 0.4 µM
  relative viability: 0.7
HCC-15; first compound 1.265 µM
  relative viability: 0.424
HCC-15; first compound 4 µM
  relative viability: 0.271
NCI-H520; first compound 0.04 µM
  relative viability: 0.658
NCI-H520; first compound 0.1265 µM
  relative viability: 0.577
NCI-H520; first compound 0.4 µM
  relative viability: 0.423
NCI-H520; first compound 1.265 µM
  relative viability: 0.234
NCI-H520; first compound 4 µM
  relative viability: 0.225
NCI-H322M; first compound 0.04 µM
  relative viability: 0.853
NCI-H322M; first compound 0.1265 µM
  relative viability: 1.12
NCI-H322M; first compound 0.4 µM
  relative viability: 0.687
NCI-H322M; first compound 1.265 µM
  relative viability: 0.55
NCI-H322M; first compound 4 µM
  relative viability: 0.465
LOU-NH91; first compound 0.04 µM
  relative viability: 0.912
LOU-NH91; first compound 0.1265 µM
  relative viability: 0.718
LOU-NH91; first compound 0.4 µM
  relative viability: 0.442
LOU-NH91; first compound 1.265 µM
  relative viability: 0.388
LOU-NH91; first compound 4 µM
  relative viability: 0.402
NCI-H1650; first compound 0.04 µM
  relative viability: 0.6
NCI-H1650; first compound 0.1265 µM
  relative viability: 0.438
NCI-H1650; first compound 0.4 µM
  relative viability: 0.475
NCI-H1650; first compound 1.265 µM
  relative viability: 0.292
NCI-H1650; first compound 4 µM
  relative viability: 0.177
H3255; first compound 0.04 µM
  relative viability: 0.896
H3255; first compound 0.4 µM
  relative viability: 1.01
H3255; first compound 1.265 µM
  relative viability: 0.526
H3255; first compound 4 µM
  relative viability: 0.428
NCI-H441; first compound 0.04 µM
  relative viability: 0.64
NCI-H441; first compound 0.1265 µM
  relative viability: 0.943
NCI-H441; first compound 0.4 µM
  relative viability: 0.886
NCI-H441; first compound 1.265 µM
  relative viability: 0.303
NCI-H441; first compound 4 µM
  relative viability: 0.199
